Values quoted from earlier work in PMC3736096 (Nature, 2013).

Row | SMILES | blood-brain barrier penetration
1 | COc1ccc(S(=O)(=O)Nc2nc(-c3cccc([N+](=O)[O-])c3)c(CN3CCCCC3)s2)cc1OC [JM6] | do not appreciably penetrate the blood-brain barrier
2 | COc1ccc(S(=O)(=O)Nc2nc(-c3cccc([N+](=O)[O-])c3)cs2)cc1OC [Ro 61-8048, 3,4-dimethoxy-[-N-4-(nitrophenyl)thiazol-2yl]-benzenesulfonamide] | do not appreciably penetrate the blood-brain barrier
